# Experimental data as given in ChEMBL document CHEMBL2413024, “Design and synthesis of pyrido[3,2-α]carbazole derivatives and their analogues as potent antitumour agents” (Eur J Med Chem, 2013).
# Test system: HT-29
# Assay: Ratio of R16 IC50 to compound IC50 for human HT-29 cells
# Format: functional
# Conditions: not given
row,SMILES,Ratio IC50
1,CN(C)CCNC(=O)c1cc2c3cc(O)ccc3n(C)c2c2cccnc12,10

# Test system: A549
# Assay: Antitumor activity against human A549 cells after 72 hrs by sulforhodamine B assay
# Format: functional, cell-based
# Conditions: A549, 72 h
row,SMILES,IC50 [nM]
1,CN(C)CCN1C(=O)c2cccc3c2c(cc2c4ccccc4sc32)C1=O,200
2,CN(C)CCNC(=O)c1cc2c3ncccc3n(C)c2c2cccnc12,360
3,CN(C)CCNC(=O)c1cc2c3cnccc3n(C)c2c2cccnc12,160
4,CN(C)CCNC(=O)c1cc2c3ccncc3n(C)c2c2cccnc12,130
5,CN(C)CCNC(=O)c1cc2c3cccnc3n(C)c2c2cccnc12,160
6,Cn1c2ccccc2c2cc(C(=O)NCCN3CCCC3)c3ncccc3c21,270
7,Cn1c2ccccc2c2cc(C(=O)NCCN3CCNCC3)c3ncccc3c21,780
8,CN1CCN(CCNC(=O)c2cc3c4ccccc4n(C)c3c3cccnc23)CC1,890
9,Cn1c2ccccc2c2cc(C(=O)NCCN3CCOCC3)c3ncccc3c21,1180
10,Cn1c2ccccc2c2cc(C(=O)NCCN3CCCCC3)c3ncccc3c21,820
11,Cn1c2ccccc2c2cc(C(=O)NCCN)c3ncccc3c21,2110
12,CNCCNC(=O)c1cc2c3ccccc3n(C)c2c2cccnc12,1370
13,Cn1c2ccccc2c2cc(C(=O)NCCO)c3ncccc3c21,3060
14,CN(C)CCCNC(=O)c1cc2c3ccccc3n(C)c2c2cccnc12,560
15,Cn1c2ccccc2c2cc(C(=O)NCCCN3CCCC3)c3ncccc3c21,870
16,Cn1c2ccccc2c2cc(C(=O)NCCCN3CCOCC3)c3ncccc3c21,710
17,CN(C)CCCNC(=O)c1cc2c3ccccc3oc2c2cccnc12,2230
18,CN(C)CCCNC(=O)c1cc2c3ccccc3sc2c2cccnc12,600
19,CN(C)CCNC(=O)c1cc2c3ccccc3oc2c2cccnc12,1890
20,CN(C)CCNC(=O)c1cc2c3ccccc3sc2c2cccnc12,270
21,COc1ccc2c(c1)c1cc(C(=O)NCCN(C)C)c3ncccc3c1n2C,220
22,CN(C)CCNC(=O)c1cc2c3cc(O)ccc3n(C)c2c2cccnc12,70
23,CN(C)CCNC(=O)c1cc2c3cc(F)ccc3n(C)c2c2cccnc12,170
24,CN(C)CCNC(=O)c1cc2c3cc(Cl)ccc3n(C)c2c2cccnc12,260
25,CN(C)CCNC(=O)c1cc2c3ccccc3[nH]c2c2cccnc12,690
26,CN(C)CCCNC(=O)c1cc2c3ccccc3[nH]c2c2cccnc12,770
27,CN(C)CCNC(=O)c1cc2c3ccccc3n(C)c2c2cccnc12,390

# Test system: not listed separately
# Assay: Aqueous solubility of the compound in pure water at 25 degC
# Format: physicochemical
# Conditions: not given
row,SMILES,solubility [mg/mL]
1,CN(C)CCNC(=O)c1cc2c3cc(O)ccc3n(C)c2c2cccnc12.Cl,22.4

# Test system: HT-29
# Assay: Antitumor activity against human HT-29 cells after 72 hrs by sulforhodamine B assay
# Format: functional, cell-based
# Conditions: HT-29, 72 h
row,SMILES,IC50 [nM]
1,CN(C)CCN1C(=O)c2cccc3c2c(cc2c4ccccc4sc32)C1=O,1090
2,CN(C)CCNC(=O)c1cc2c3ncccc3n(C)c2c2cccnc12,220
3,CN(C)CCNC(=O)c1cc2c3cnccc3n(C)c2c2cccnc12,150
4,CN(C)CCNC(=O)c1cc2c3ccncc3n(C)c2c2cccnc12,130
5,CN(C)CCNC(=O)c1cc2c3cccnc3n(C)c2c2cccnc12,180
6,Cn1c2ccccc2c2cc(C(=O)NCCN3CCCC3)c3ncccc3c21,630
7,Cn1c2ccccc2c2cc(C(=O)NCCN3CCNCC3)c3ncccc3c21,1250
8,CN1CCN(CCNC(=O)c2cc3c4ccccc4n(C)c3c3cccnc23)CC1,1240
9,Cn1c2ccccc2c2cc(C(=O)NCCN3CCOCC3)c3ncccc3c21,2240
10,Cn1c2ccccc2c2cc(C(=O)NCCN3CCCCC3)c3ncccc3c21,1300
11,Cn1c2ccccc2c2cc(C(=O)NCCN)c3ncccc3c21,2470
12,CNCCNC(=O)c1cc2c3ccccc3n(C)c2c2cccnc12,1460
13,Cn1c2ccccc2c2cc(C(=O)NCCO)c3ncccc3c21,4450
14,CN(C)CCCNC(=O)c1cc2c3ccccc3n(C)c2c2cccnc12,850
15,Cn1c2ccccc2c2cc(C(=O)NCCCN3CCCC3)c3ncccc3c21,1060
16,Cn1c2ccccc2c2cc(C(=O)NCCCN3CCOCC3)c3ncccc3c21,1410
17,CN(C)CCCNC(=O)c1cc2c3ccccc3oc2c2cccnc12,2060
18,CN(C)CCCNC(=O)c1cc2c3ccccc3sc2c2cccnc12,1160
19,CN(C)CCNC(=O)c1cc2c3ccccc3oc2c2cccnc12,2270
20,CN(C)CCNC(=O)c1cc2c3ccccc3sc2c2cccnc12,600
21,COc1ccc2c(c1)c1cc(C(=O)NCCN(C)C)c3ncccc3c1n2C,200
22,CN(C)CCNC(=O)c1cc2c3cc(O)ccc3n(C)c2c2cccnc12,110
23,CN(C)CCNC(=O)c1cc2c3cc(F)ccc3n(C)c2c2cccnc12,160
24,CN(C)CCNC(=O)c1cc2c3cc(Cl)ccc3n(C)c2c2cccnc12,230
25,CN(C)CCNC(=O)c1cc2c3ccccc3[nH]c2c2cccnc12,830
26,CN(C)CCCNC(=O)c1cc2c3ccccc3[nH]c2c2cccnc12,1390
27,CN(C)CCNC(=O)c1cc2c3ccccc3n(C)c2c2cccnc12,470

# Test system: A549
# Assay: Ratio of R16 IC50 to compound IC50 for human A549 cells
# Format: functional
# Conditions: not given
row,SMILES,Ratio IC50
1,CN(C)CCNC(=O)c1cc2c3cc(O)ccc3n(C)c2c2cccnc12,7
